According to patent publication US5547951A, “Pyrido[2,3-b][1,4]benzoxazepin (and thiazepin)-6(5H)-ones and -thiones and their use in the prevention or treatment of HIV-1 infection” (Boehringer Ingelheim Pharamceuticals, Inc., priority 1994, dated 1996):
In brackets after ≈: the same amount, converted by molar mass.

target: T1, HIV-1 reverse transcriptase (Human immunodeficiency virus type 1 group M subtype B, UniProt P03367); assay: Reverse Transcriptase (RT) Assay: inhibition of RNA-dependent DNA polymerase activity, cell-free, poly r(C)/oligo d(G) template, 3H-dGTP substrate; assay type: biochemical, Human Immunodeficiency Virus (HIV-1), LAV strain; conditions: @ 10 μg/ml; room temperature, 60 minutes
T1 construct: Reverse transcriptase enzyme from the LAV strain; made in house; host or cells: E. coli JM109, DNA clone pBRTprtl+ in expression vector pIBI21 (lac promoter)
Source text: Utilizing the Reverse Transcriptase (RT) Assay described below, compounds can be tested for their ability to inhibit the RNA-dependent DNA polymerase activity of HIV RT. Certain specific compounds, described in the Examples which appear below, were so tested. […]
Among the enzymes for which Human Immunodeficiency Virus (HIV-1) encodes is a reverse transcriptase (1), so-named because it transcribes a DNA copy from an RNA template. This activity can be quantitatively measured in a cell-free enzyme assay which has been previously described (2), and is based upon the observation that reverse transcriptase is able to use a synthetic template [poly r(C) primed with oligo d(G)] to transcribe a radio-labelled, acidprecipitable DNA strand utilizing ^3 3H-dGTP as a substrate. […]
a) Preparation of the enzyme
Reverse transcriptase enzyme from the LAV strain of Human Immuno- deficiency Virus (HIV-1) (1) was isolated from the bacterial strain JM109 (3) expressing the DNA clone pBRTprtl+ (2) which is under the control of the lac promotor in the expression vector pIBI21 (4). An overnight culture grown in 2XYT medium (37° C., 225 rpm) (5) supplemented with 100 μg/ml ampicillin for positive selection is inoculated at a 1:40 dilution into M9 medium supplemented with 10μg/ml thiamine, 0.5% casamino acids, and 50 μg/ml ampicillin (5). The culture is incubated (37° C., 225 rpm) until it reaches an 0D540 of 0.3-0.4. At that time the repressor inhibitor IPTG (isopropyl b-D-thiogalactopyranoside) is added to 0.5 mM and incubated for 2 additional hours. Bacteria are pelletted, resuspended in a 50mM Tris, 0.6mM EDTA, 0.375 M NaGl buffer and digested by the addition of lysozyme (1 mg/ml) for 30 minutes on ice. The cells are lysed by the addition to 0.2% NP-40 and brought to 1 M NAGl.
After removal of the insoluble debris by centrifugation, the protein is precipitated by the addition of 3 volumes of saturated aqueous ammonium sulfate. The enzyme is pelleted, resuspended in RT buffer (50 mM Tris pH 7.5, 1 mM EDTA, 5mM DTT, 0.1% NP-40, 0.1M NaCl, and 50% glycerol) and stored at -70° C. for further use. […]
b) Composition of 2X concentrated stock reaction mixture
The 2X concentrated stock reaction mixture is aliquoted and stored at -20° C. The mixture is stable and thawed for use in each assay. This enzyme assay has been adapted to a 96 well microtiter plate system, and has been previously described (6). Tris buffer (50 mM, pH 7.4), vehicle (solvent diluted to match the compound dilution), or compounds in vehicle are dispensed into 96-well microtiter plates (10 μl/well; 3 wells/compound). The HIV RT enzyme is thawed, diluted in 50 mM Tris pH 7.4 so that fifteen μl of diluted enzyme contain 0.001 Unit (one unit is that amount of enzyme to transform 1 micromole of substrate per minute at 25° C.), and 15 μ are dispensed per well. Twenty μl of 0.12-0.5M EDTA are added to the first three wells of the microtiter plate. EDTA thelares the Mg^++ present and prevents reverse transcription. This group serves as background polymerization which is subtracted from all other groups. Twenty-five μl of the 2X reaction mixture are added to all wells and the assay is allowed to incubate at room temperature for 60 minutes. The assay is terminated by precipitating the DNA in each well with 50 μl of 10% trichloracetic acid (TCA) in 1% sodium pyrophosphate. The microtiter plate is incubated for 15 minutes at 4° C. and the precipitate is fixed onto #30 glass fiber paper (Schletcher & Schuell) using a Skatron semi- automatic harvester. The filters are then washed with additional 5% TCA containing 1% sodium pyrophosphate, rinsed with 70% aqueous ethanol, dried, and transferred to scintillation vials (6). Each vial receives 2 mls of scintillation cocktail and is counted in a Beckman beta counter.
Calculations for percent inhibition are as follows [formula] References

SMILES	inhibition at 10 µg/mL [%]
CN1C(=O)c2ccccc2Oc2ncccc21 [Example 3, 5-Methylpyrido[2,3-b][1,4]benzoxzepin-6(5H)-one]	30
CN1C(=O)c2cc(N)ccc2Oc2ncccc21 [Example 6, 8-Amino-5-methylpyrido[2,3-b][1,4]benzoxazepin-6(5H)-one]	50
CC=CCN1C(=O)c2ccccc2Oc2ncccc21 [Example 9, 5-(2-Buten-1-yl)pyrido[2,3-b][1,4]benzoxazepin-6(5H) -one]	39
C=C(Cl)CN1C(=O)c2ccccc2Oc2ncccc21 [Example 7, 5-(2-Chloro-2-propen-1-yl)pyrido[2,3-b][1,4]benzoxazepin-6(5H)-one]	66
CCN1C(=O)c2ccc(C)cc2Oc2ncccc21 [Example 11, 5-Ethyl-9-methylpyrido[2,3-b][1,4]benzoxazepin-6(5H)-one]	30
C=C(C)CN1C(=O)c2ccccc2Oc2ncccc21 [Example 8, 5-(2-Methyl-2-propen-1-yl)pyrido[2,3-b][1,4]benzoxazepin-6(5H)-one]	47
CCC(C)N1C(=O)c2ccccc2Oc2ncccc21 (stereo not shown) [Example 4, 5-Sec-butylpyrido[2,3-b][1,4]benzoxazepin-6(5H) -one]	50
C=CCN1C(=O)c2ccccc2Oc2nc(Cl)ccc21 [Example 2, 5-Allyl-2-chloropyrido[2,3-b][1,4]benzoxazepin-6(5H)-one]	96
C=CCN1C(=O)c2cccc(C)c2Oc2ncccc21 [Example 10, 5-Allyl-10-methylpyrido[2,3-b][1,4]benzoxazepin-6(5H)-one]	84
CCC(=O)N1C(=O)c2cc(C)ccc2Oc2ncccc21 [Example 12, 8-Methyl-5-propionylpyrido[2,3-b][1,4]benzoxazepin-6(5H)-one]	49
CSCCN1C(=O)c2ccccc2Oc2nc(Cl)ccc21 [Example 1, 2-Chloro-5-(methylthioethyl)pyrido[2,3-b][1,4]benzoxazepin-6(5H)-one]	99
CCN1C(=O)c2cccc(C)c2Oc2ncccc21 [Example 5, 5-Ethyl-10-methylpyrido[2,3-b][1,4]benzoxazepin-6(5H)-one]	83

tested on: not listed separately; assay: MTT assay for cellular cytotoxicity; assay type: cell-based; conditions: human, H9 cells, five days, read-out: Cytotoxity Assay EC50
Protocol: In order to roughly assess the cytotoxicity of the compounds of formula I, several were tested in the MTT Cellular Cytotoxicity Assay described below. Compounds having a relatively high EC50 are preferred.
MTT ASSAY FOR CELLULAR CYTOTOXICITY
The MTT [3-(4,5-dimethylthiazol-2yl)-2,5 diphenyl tetrazolium bromide) assay is based on cleavage of tetrazolium bromide by metabolically active cells, resulting in a highly quantitative blue color. This assay has been previously described (1) but has been optimized for the purposes of the testing reported herein.
The H9 cell line (2), an established human lymphoma suspension cell line grown in RPMI 1640 supplemented with 10% fetal bovine serum is used as the target cell line in the assay. Cells (100μl) are plated in microtest plate wells at a concentration of 10^5 cells per ml in the presence of varying concentrations of inhibitor. The cells are incubated at 37° C in a humidified CO2 incubator. Five days later, 20 μl of MTT (5 mg/ml in RPMI 1640, sonicated, 0.2 micron filtered, and stored at 4° C.) is added to each well. After 4 hours additional incubation at 37° 60 μl of Triton-X is added to each well and thoroughly mixed to aid the solubiltzation of the crystals. Absolute ethanol (5μ) is added to remove bubbles, and the mixture is incubated for 30 minutes at 60° C. and immediately read on a plate reader (Dynatech) at a wavelength of 570 nm. […]

SMILES	CC50 at 120 h [µg/mL]
CSCCN1C(=O)c2ccccc2Oc2nc(Cl)ccc21 [Example 1, 2-Chloro-5-(methylthioethyl)pyrido[2,3-b][1,4]benzoxazepin-6(5H)-one]	20 (≈ 62.3 µM)
